# Experiments:
# Experiment in all cases: relative viability (nuclei count vs DMSO), 5 days (fraction); higher = more cells survive
# [1] = compound: O=C(Nc1cc(C(F)(F)F)cc(C(F)(F)F)c1)c1cc(Cl)ccc1O [IMD-0354] + O=C(c1cc(Cc2n[nH]c(=O)c3ccccc23)ccc1F)N1CCN(C(=O)C2CC2)CC1 [Olaparib] (partner 8 µM)
# Summary of the method: (§1)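 Each reported value is a median over duplicate plates. It expresses relative viability: treated-well nuclei count divided by vehicle-well nuclei count. Lung cancer cell lines in 1536-well plates were dosed by pin tool a day after seeding, alone with one drug or with a fixed anchor-drug dose plus five library-drug doses (not always all listed) in √10 steps, and nuclei were counted after 5 days.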
# [2] = compound: Cc1cnc(CNC(=O)c2c(=O)c3ccc(N4CCCN(C)CC4)nc3n3c2sc2ccccc23)cn1 [CX-5461] + Cc1nc(Nc2ncc(C(=O)Nc3c(C)cccc3Cl)s2)cc(N2CCN(CCO)CC2)n1 [Dasatinib] (partner 0.075 µM)
# Summary of the method: as §1
# [3] = compound: Cc1cnc(CNC(=O)c2c(=O)c3ccc(N4CCCN(C)CC4)nc3n3c2sc2ccccc23)cn1 [CX-5461] + CS(=O)(=O)CCNCc1ccc(-c2ccc3ncnc(Nc4ccc(OCc5cccc(F)c5)c(Cl)c4)c3c2)o1 [Lapatinib] (partner 2 µM)
# Summary of the method: as §1
# [4] = compound: O=C(Nc1cc(C(F)(F)F)cc(C(F)(F)F)c1)c1cc(Cl)ccc1O [IMD-0354] + C[C@@H](Oc1cc(-c2cnn(C3CCNCC3)c2)cnc1N)c1c(Cl)ccc(F)c1Cl [Crizotinib] (partner 1 µM)
# Summary of the method: as §1
Cell Line,relative viability ([1]; first compound 0.04 µM),relative viability ([1]; first compound 0.1265 µM),relative viability ([1]; first compound 0.4 µM),relative viability ([1]; first compound 1.265 µM),relative viability ([1]; first compound 4 µM),relative viability ([2]; first compound 0.01 µM),relative viability ([2]; first compound 0.03162 µM),relative viability ([2]; first compound 0.1 µM),relative viability ([2]; first compound 0.3162 µM),relative viability ([2]; first compound 1 µM),relative viability ([3]; first compound 0.01 µM),relative viability ([3]; first compound 0.03162 µM),relative viability ([3]; first compound 0.1 µM),relative viability ([3]; first compound 0.3162 µM),relative viability ([3]; first compound 1 µM),relative viability ([4]; first compound 0.04 µM),relative viability ([4]; first compound 0.1265 µM),relative viability ([4]; first compound 0.4 µM),relative viability ([4]; first compound 1.265 µM),relative viability ([4]; first compound 4 µM)
LU99A,0.196,0.269,0.257,0.176,0.179,0.759,0.499,0.439,0.341,0.172,0.859,1.02,0.86,0.56,0.213,0.453,0.62,0.482,0.214,0.203
LXF-289,0.959,0.945,0.783,0.418,0.0925,0.257,0.204,0.202,0.103,0.154,0.897,0.936,0.947,0.602,0.487,0.834,0.803,0.575,0.229,0.069
NCI-H23,0.277,0.35,0.24,0.132,0.197,0.75,0.892,0.834,1.03,0.5,1.15,1.19,0.82,0.266,0.362,0.719,0.522,0.376,0.378,0.264
NCI-H322M,0.789,0.773,0.6,0.407,0.517,0.249,0.243,0.267,0.219,0.267,0.552,0.564,0.644,–,0.655,1.06,0.972,0.811,0.851,0.257
NCI-H358,0.569,0.543,0.335,0.14,0.198,0.146,0.148,0.176,0.0999,0.12,0.389,0.447,0.392,0.267,0.306,0.6,0.611,0.228,0.232,0.348
NCI-H460,0.395,0.322,0.363,0.0469,0.0473,0.554,0.435,0.263,0.516,0.0464,1.17,1.11,0.23,0.0503,0.0174,0.892,0.808,0.243,0.142,0.0357
NCI-H520,0.325,0.317,0.318,0.146,0.189,0.164,0.165,0.199,0.166,0.203,0.782,0.692,0.784,0.619,0.491,0.959,0.672,0.44,0.459,0.239
NCI-H596,0.758,0.635,0.701,0.818,0.463,0.613,0.639,0.596,0.623,0.473,1.07,1.09,0.96,1.1,0.628,0.928,1.04,0.858,0.955,0.451
NCI-H647,0.67,0.485,0.292,0.0684,0.113,0.18,0.175,0.161,0.162,0.0641,1.24,1.1,1.01,0.949,0.226,1.37,1.2,0.505,0.168,0.185
NCI-H650,0.329,0.355,0.32,0.211,0.144,0.423,0.431,0.448,0.482,0.389,0.94,1.01,0.915,0.312,0.934,0.844,0.714,0.542,0.528,0.2
NCI-H661,0.752,0.774,0.356,0.256,0.261,1.06,0.863,0.9,–,0.4,0.382,0.533,0.611,–,0.402,1.07,1.2,0.869,0.524,0.317
NCI-H727,0.574,0.633,0.617,0.524,0.318,0.324,0.361,0.253,0.377,0.31,0.862,0.997,0.682,0.729,0.631,0.688,0.827,0.484,0.547,0.385
NCI-H838,0.778,0.73,0.426,0.253,0.302,0.283,0.292,0.38,0.241,0.243,1.17,1.11,1.05,0.252,0.6,0.912,0.776,0.424,0.561,0.279
NCI-H1355,0.663,0.769,0.452,0.198,0.175,0.81,0.792,0.665,0.449,0.389,1.03,0.976,1.15,0.293,0.785,1.29,1.04,0.956,0.97,0.242
NCI-H1437,0.669,0.574,0.376,0.218,0.232,0.434,0.373,0.431,0.32,0.368,0.779,0.869,–,0.519,0.528,1.02,0.905,0.548,0.238,0.207
NCI-H1650,0.827,0.82,0.463,0.325,0.145,0.355,0.326,0.195,0.305,0.14,0.714,0.714,–,0.229,0.19,0.921,0.793,0.578,0.19,0.205

# Source: the supplement of paper PMC10307832
